In patent US5227508A, “3-deoxy-3-substituted analogs of phosphatidylinositol” (Mayo Foundation for Medical Education and Research, priority 1992, dated 1993):
Like-named read-outs stand apart in the source and are kept apart here. Blank lines part the entries; values can stand above or below the compound they belong to.

Columns and labels:
[1] = system: normal NIH 3T3 cells and several oncogene transformed NIH 3T3 cell lines; settings: in culture; prior work (A. P. Kozikowski); cited from earlier work
[2] = system: v-sis oncogene-expressing NIH 3T3 cells; assay: Cell growth inhibition, v-sis oncogene-expressing NIH 3T3 cells, 3 days; format: cell-based; settings: for IC50: Mus musculus, NIH3T3, 72 h, 3 days
Procedure: (§1) Wild type NIH 3T3 cells and v-sis oncogene-expressing NIH 3T3 cells were maintained in bulk culture in DMEM with 10% heat inactivated calf serum and passaged using 0.05% trypsin and 0.5 mM EDTA. For cell growth assays, the cells were plated at a density of 5×10^3 cells in 1.6 cm diameter culture wells in 0.5 ml DMEM containing 10% heat inactivated calf serum and allowed to attach to the surface of the well for 24 hr. The medium was then replaced with fresh medium containing the myo-inositol analogues. […] Adherent cells were harvested after 3 days and were counted using an automated cell counter. Inhibition of cell growth caused by serial concentrations of analogues was expressed as a percentage of the number of nontreated cells at the end of the 3-day incubation period. Incubations were conducted in quadruplicate. The mean concentration of analogue required to cause 50% inhibition of cell growth (IC50)±S.E. was calculated from nonlinear least-squares regression analysis of the cell-proliferation concentration data (P. L. Appel et al., Cancer Chemother. Pharmacol., 17, 47 (1986)).

[3] = system: NIH 3T3 cells (wild type); assay: Cell growth inhibition, wild type NIH 3T3 cells, 3 days; format: cell-based; settings: for IC50: Mus musculus, NIH3T3, 72 h, 3 days
Procedure: as §1

[4] = system: HT-29 cells; assay: Soft agar colony forming assay, HT-29 colon carcinoma, 7 days; format: cell-based; settings: Homo sapiens, HT-29, 168 h, medium with 40 μM myo-inositol, read-out: IC50 for inhibition of colony formation
Procedure: The human colon carcinoma cell line, HT-29, was chosen as being representative of a clinically very important, slow growing and chemotherapy resistant human solid tumor. Many human colon cancer lines, including HT-29, have the v-sis oncogene (D. L. Trainer et al., Int. J. Cancer, 41, 287 (1988)). The growth of HT-29 cells was measured by colony formation in the soft agar colony forming assay over 7 days, with automated colony counting using a Omicon 3600 Image Analysis System, as described previously by M. C. Alley et al., 44, 549 (1984).
All soft-agarose cultures were performed in similar fashion. Each 35-mm culture dish contained a base layer consisting of 0.5 ml of standard DMEM culture medium (with 40 μM myo-inositol) with 0.5% agarose. On Day 0, cells in bulk culture were dissociated with trypsin and EDTA, washed once in growth medium, and subcultured by layering 1×10^4 viable cells in 0.5 ml of growth medium with 0.3% agarose over each base layer. Cultures were maintained in cell culture incubators at 37° C., 5% CO2 :95% air, and 100% relative humidity. On Day 1 (24 hr later), an upper layer of 1 ml of growth medium containing drug was applied to each culture. Cell lines formed a sufficient number of detectable colonies (>60 μm diameter) for analysis following 7 days of incubation. […]

[5] = - myo-inositol, ± S.E. of mean, read-out: v-sis NIH IC50
[6] = - myo-inositol, ± S.E. of mean, read-out: NIH IC50

SMILES: O[C@@H]1[C@@H](O)[C@H](O)[C@@H](F)[C@@H](O)[C@H]1O [3-deoxy-3-fluoro-myo-inositol, reference compound]
cell growth inhibitory activities [1]: exhibit cell growth inhibitory activities
IC50 ([2]; + myo-inositol, read-out: v-sis NIH IC50 (class symbol)): > 33000 µM
IC50 [2, 5]: 1000 µM
IC50 ([3]; + myo-inositol, read-out: NIH IC50 (class symbol)): > 33000 µM
IC50 [3, 6]: 7000 µM

IC50 [4]: 53 ± 9 µM
SMILES: CCCCCCCCCCCCCCCC(=O)OC[C@H](COP(=O)(O)O[C@H]1[C@H](O)[C@@H](O)[C@H](O)[C@@H](F)[C@H]1O)OC(=O)CCCCCCCCCCCCCCC [Compound 7, 3-Deoxy-3-fluoro-D-myo-inositol [(R)-2,3-bis(hexadecanoyloxy)propyl] hydrogen phosphate]
IC50 ([2]; + myo-inositol, ± S.E. of mean, read-out: v-sis NIH IC50): 81 ± 11 µM
IC50 [2, 5]: 107 ± 15 µM
antagonism of growth inhibition by myo-inositol ([2]; myo-inositol at physiological concentrations, v-sis NIH 3T3): not antagonized by myo-inositol at physiological concentrations
selectivity for growth inhibition of v-sis compared to wild type NIH 3T3 cell ([2]; v-sis vs wild type NIH 3T3): lost
IC50 ([3]; + myo-inositol, ± S.E. of mean, read-out: NIH IC50): 99 ± 13 µM
IC50 [3, 6]: 110 ± 20 µM
antagonism of growth inhibition by myo-inositol ([3]; myo-inositol at physiological concentrations, wild type NIH 3T3): not antagonized by myo-inositol at physiological concentrations
more potent inhibitor of cell growth than the simple myo-inositol analogue ([3]; wild type NIH 3T3 cells, compared with D-3-deoxy-fluoro-myo-inositol): up to 1,000 fold
